Results published in US9765060B2 (Gilead Sciences, Inc., priority 2014, dated 2017).
Like-named read-outs stand apart in the source and are kept apart here.

Biological target: PI3K isoform δ (Homo sapiens (Human), UniProt O00329)
Assay: TR-FRET assay of enzymatic activity of class I PI3K isoforms
[1] = read-out: IC50 (nM) for PI3K isoform δ (Table 2), TR-FRET, 2× Km ATP, 2 μM PIP2, incubated for 30 minutes at 25° C.
[2] = read-out: IC50 (nM) for PI3K isoform δ (Table 3), TR-FRET, 2× Km ATP, 2 μM PIP2, incubated for 30 minutes at 25° C.

Chain of PI3K isoform δ (O00329 whole entry, canonical isoform): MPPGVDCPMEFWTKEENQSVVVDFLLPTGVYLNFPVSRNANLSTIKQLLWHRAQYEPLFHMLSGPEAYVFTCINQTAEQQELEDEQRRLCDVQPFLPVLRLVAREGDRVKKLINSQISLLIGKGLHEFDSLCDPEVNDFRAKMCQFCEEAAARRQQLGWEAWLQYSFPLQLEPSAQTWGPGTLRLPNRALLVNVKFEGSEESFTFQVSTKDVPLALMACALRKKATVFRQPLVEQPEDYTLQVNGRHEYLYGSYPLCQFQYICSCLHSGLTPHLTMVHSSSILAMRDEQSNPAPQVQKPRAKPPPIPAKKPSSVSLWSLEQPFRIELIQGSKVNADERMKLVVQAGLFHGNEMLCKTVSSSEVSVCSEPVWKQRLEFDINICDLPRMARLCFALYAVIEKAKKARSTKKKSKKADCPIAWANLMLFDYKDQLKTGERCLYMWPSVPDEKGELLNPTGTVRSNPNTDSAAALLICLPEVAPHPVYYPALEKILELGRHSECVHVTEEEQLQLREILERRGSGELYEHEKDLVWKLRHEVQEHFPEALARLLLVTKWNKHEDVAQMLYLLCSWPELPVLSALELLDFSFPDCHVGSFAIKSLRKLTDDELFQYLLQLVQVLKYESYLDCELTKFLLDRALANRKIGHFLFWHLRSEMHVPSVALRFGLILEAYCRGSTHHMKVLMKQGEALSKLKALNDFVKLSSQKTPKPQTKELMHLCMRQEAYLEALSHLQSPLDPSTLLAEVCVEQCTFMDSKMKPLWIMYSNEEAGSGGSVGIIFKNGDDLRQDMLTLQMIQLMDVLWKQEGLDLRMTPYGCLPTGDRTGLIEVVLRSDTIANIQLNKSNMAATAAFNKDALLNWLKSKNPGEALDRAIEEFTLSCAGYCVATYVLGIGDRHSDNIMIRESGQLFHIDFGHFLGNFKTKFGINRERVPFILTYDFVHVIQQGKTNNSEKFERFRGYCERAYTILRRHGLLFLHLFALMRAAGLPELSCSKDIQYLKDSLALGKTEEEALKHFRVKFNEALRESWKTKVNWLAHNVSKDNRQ
Chain of PI3K isoform δ (P27986 whole entry partner, canonical isoform): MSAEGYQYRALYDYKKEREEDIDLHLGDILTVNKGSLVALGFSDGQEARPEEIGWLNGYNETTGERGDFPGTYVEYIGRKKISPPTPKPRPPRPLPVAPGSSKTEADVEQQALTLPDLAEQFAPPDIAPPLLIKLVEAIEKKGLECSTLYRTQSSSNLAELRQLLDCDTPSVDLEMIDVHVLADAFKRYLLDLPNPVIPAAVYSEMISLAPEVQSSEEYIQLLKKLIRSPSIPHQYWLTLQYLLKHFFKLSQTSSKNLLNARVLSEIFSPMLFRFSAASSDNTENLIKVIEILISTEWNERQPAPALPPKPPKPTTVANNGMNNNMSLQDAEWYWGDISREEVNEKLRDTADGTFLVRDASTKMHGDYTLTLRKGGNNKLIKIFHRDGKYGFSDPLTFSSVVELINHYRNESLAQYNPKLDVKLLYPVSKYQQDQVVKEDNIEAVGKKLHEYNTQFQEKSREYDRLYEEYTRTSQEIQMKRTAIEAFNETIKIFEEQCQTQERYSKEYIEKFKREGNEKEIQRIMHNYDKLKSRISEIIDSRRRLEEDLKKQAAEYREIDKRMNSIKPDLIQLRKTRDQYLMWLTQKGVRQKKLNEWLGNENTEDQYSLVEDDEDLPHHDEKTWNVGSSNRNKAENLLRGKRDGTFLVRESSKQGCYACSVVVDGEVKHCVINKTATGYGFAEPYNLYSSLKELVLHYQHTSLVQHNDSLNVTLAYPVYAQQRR
From the text: TR-FRET monitored the formation of 3,4,5-inositol triphosphate molecule that competed with fluorescently labeled PIP3 for binding to the GRP-1 pleckstrin homology domain protein. […] Class I PI3K isoforms were expressed and purified as heterodimeric recombinant proteins. All assay reagents and buffers for the TR-FRET assay were purchased from Millipore.

Row | Compound | IC50 [1] | IC50 [2] | further results
1 | N#Cc1c(N)nc(N)nc1N[C@H](c1nc2ccc(F)c(C#N)c2c(=O)n1-c1ccccc1)C1CC1 [Compound 8a, (S)-2-(cyclopropyl((2,6-diamino-5-cyanopyrimidin-4-yl)amino)methyl)-6-fluoro-4-oxo-3-phenyl-3,4-dihydroquinazoline-5-carbonitrile] | 2 nM |  | 
2 | CN(C)C(=O)C[C@H](Nc1nc(N)nc(N)c1C#N)c1nc2cccc(Cl)c2c(=O)n1-c1cc(F)cc(F)c1 [Compound 9a, (S)-3-(5-chloro-3-(3,5-difluorophenyl)-4-oxo-3,4-dihydroquinazolin-2-yl)-3-((2,6-diamino-5-cyanopyrimidin-4-yl)amino)-N,N-dimethylpropanamide] | 61 nM |  | 
3 | CN(C)C(=O)C[C@H](Nc1nc(N)nc(N)c1C#N)c1nc2cccc(Cl)c2c(=O)n1-c1ccccc1 [Compound 10a, (S)-3-(5-chloro-4-oxo-3-phenyl-3,4-dihydroquinazolin-2-yl)-3-((2,6-diamino-5-cyanopyrimidin-4-yl)amino)-N,N-dimethylpropanamide] | 2 nM |  | 
4 | Cc1cccc2nc([C@@H](Nc3nc(N)nc(N)c3C#N)C3CC3)n(-c3cc(F)cc(C#N)c3)c(=O)c12 [Compound 11a, (S)-2,4-diamino-6-(((3-(3-cyano-5-fluorophenyl)-5-methyl-4-oxo-3,4-dihydroquinazolin-2-yl)(cyclopropyl)methyl)amino)pyrimidine-5-carbonitrile] | 14 nM |  | 
5 | Cc1cccc2nc([C@@H](Nc3nc(N)nc(N)c3C#N)C3CC3)n(-c3cc(F)cc(F)c3)c(=O)c12 [Compound 12a, (S)-2,4-diamino-6-((cyclopropyl(3-(3,5-difluorophenyl)-5-methyl-4-oxo-3,4-dihydroquinazolin-2-yl)methyl)amino)pyrimidine-5-carbonitrile] | 1 nM |  | 
6 | N#Cc1c(N)nc(N)nc1N[C@H](c1nc2cccc(Cl)c2c(=O)n1-c1cc(F)cc(F)c1)C1CC1 [Compound 13a, (S)-2,4-diamino-6-(((5-chloro-3-(3,5-difluorophenyl)-4-oxo-3,4-dihydroquinazolin-2-yl)(cyclopropyl)methyl)amino)pyrimidine-5-carbonitrile] | 1 nM |  | 
7 | N#Cc1c(N)nc(N)nc1N[C@H](c1nc2cccc(F)c2c(=O)n1-c1cc(F)cc(F)c1)C1CC1 [Compound 14a, (S)-2,4-diamino-6-((cyclopropyl(3-(3,5-difluorophenyl)-5-fluoro-4-oxo-3,4-dihydroquinazolin-2-yl)methyl)amino)pyrimidine-5-carbonitrile] | 19 nM |  | 
8 | N#Cc1c(N)nc(N)nc1N[C@H](c1nc2ccc(F)cc2c(=O)n1-c1cccc(F)c1)C1CC1 [Compound 16a, (S)-2,4-diamino-6-((cyclopropyl(6-fluoro-3-(3-fluorophenyl)-4-oxo-3,4-dihydroquinazolin-2-yl)methyl)amino)pyrimidine-5-carbonitrile] | 4 nM |  | 
9 | CC(=O)c1c(N)nc(N)nc1N[C@@H](C)c1nc2cccc(Cl)c2c(=O)n1-c1cc(F)cc(F)c1 [Compound 18a, (S)-2 (1-((5-acetyl-2,6-diaminopyrimidin-4-yl)amino)ethyl)-5-chloro-3-(3,5-difluorophenyl)quinazolin-4(3H)-one] | 6 nM |  | 
10 | CO[C@H]1C[C@@H](c2nc3cccc(Cl)c3c(=O)n2-c2cc(F)cc(F)c2)N(c2nc(N)nc(N)c2C#N)C1 [Compound 19, 2,4-diamino-6-((2S)-2-(5-chloro-3-(3,5-difluorophenyl)-4-oxo-3,4-dihydroquinazolin-2-yl)-4-methoxypyrrolidin-1-yl)pyrimidine-5-carbonitrile] |  |  | IC50: 9 nM
11 | Cc1nc(N)c(Br)c(N[C@@H](C)c2nc3cccc(Cl)c3c(=O)n2-c2ccccc2)n1 [Compound 20, (S)-2-(1-((6-amino-5-bromo-2-methylpyrimidin-4-yl)amino)ethyl)-5-chloro-3-phenylquinazolin-4(3H)-one] |  | 21 nM | 
12 | Cc1nc(N)c(Br)c(N[C@@H](C)c2nc3cccc(Cl)c3c(=O)n2-c2cc(F)cc(F)c2)n1 [Compound 21, (S)-2-(1-((6-amino-5-bromo-2-methylpyrimidin-4-yl)amino)ethyl)-5-chloro-3-(3,5-difluorophenyl)quinazolin-4(3H)-one] |  | 30 nM | 
13 | C[C@H](Nc1nc(N)nc(N)c1C#N)c1nc2cccc(OCCN3CCOCC3)c2c(=O)n1-c1ccccc1 [Compound 22, (S)-2,4-diamino-6-((1-(5-(2-morpholinoethoxy)-4-oxo-3-phenyl-3,4-dihydroquinazolin-2-yl)ethyl)amino)pyrimidine-5-carbonitrile] |  | 22 nM | 
14 | C[C@H](Nc1nc(N)nc(N)c1C#N)c1nc2cccc(OCCN3CCCCCC3)c2c(=O)n1-c1ccccc1 [Compound 23, (S)-2,4-diamino-6-((1-(5-(2-(azepan-1-yl)ethoxy)-4-oxo-3-phenyl-3,4-dihydroquinazolin-2-yl)ethyl)amino)pyrimidine-5-carbonitrile] |  | 10 nM | 
15 | C[C@H](Nc1nc(N)nc(N)c1C#N)c1nc2cccc(OCCN3CCCC3)c2c(=O)n1-c1ccccc1 [Compound 24, (S)-2,4-diamino-6-((1-(4-oxo-3-phenyl-5-(2-(pyrrolidin-1-yl)ethoxy)-3,4-dihydroquinazolin-2-yl)ethyl)amino)pyrimidine-5-carbonitrile] |  | 10 nM | 
16 | CC(C)OC(=O)COc1cccc2nc([C@H](C)Nc3nc(N)nc(N)c3C#N)n(-c3ccccc3)c(=O)c12 [Compound 25, (S)-isopropyl 2-((2-(1-((2,6-diamino-5-cyanopyrimidin-4-yl)amino)ethyl)-4-oxo-3-phenyl-3,4-dihydroquinazolin-5-yl)oxy)acetate] |  | 36 nM | 
17 | C[C@H](Nc1nc(N)nc(N)c1C#N)c1nc2cccc(OCCN3CCCC3=O)c2c(=O)n1-c1ccccc1 [Compound 26] |  | 21 nM | 
18 | C[C@H](Nc1nc(N)nc(N)c1C#N)c1nc2cccc(OCCN(C)C)c2c(=O)n1-c1ccccc1 [Compound 27] |  |  | IC50 (IC50 (nM) for PI3K isoform δ (Table 3), TR-FRET, 2× Km ATP, 2 μM PIP2, incubated for 30 minutes at 25° C.): 57 nM
19 | C[C@H](Nc1nc(N)nc(N)c1C#N)c1nc2cccc(OCC(=O)N3CCCCC3)c2c(=O)n1-c1ccccc1 [Compound 28, (S)-2,4-diamino-6-((1-(4-oxo-5-(2-oxo-2-(piperidin-1-yl)ethoxy)-3-phenyl-3,4-dihydroquinazolin-2-yl)ethyl)amino)pyrimidine-5-carbonitrile] |  | 2 nM | 
20 | C[C@H](Nc1nc(N)nc(N)c1C#N)c1nc2cccc(OCC(C)(CO)CO)c2c(=O)n1-c1ccccc1 [Compound 29, (S)-2,4-diamino-6-((1-(5-(3-hydroxy-2-(hydroxymethyl)-2-methylpropoxy)-4-oxo-3-phenyl-3,4-dihydroquinazolin-2-yl)ethyl)amino)pyrimidine-5-carbonitrile] |  | 220 nM | 
21 | C[C@H](Nc1nc(N)nc(N)c1C#N)c1nc2cccc(OCCN3CCCCC3)c2c(=O)n1-c1ccccc1 [Compound 30, (S)-2,4-diamino-6-((1-(4-oxo-3-phenyl-5-(2-(piperidin-1-yl)ethoxy)-3,4-dihydroquinazolin-2-yl)ethyl)amino)pyrimidine-5-carbonitrile] |  | 6 nM | 
22 | C[C@H](Nc1nc(N)nc(N)c1C#N)c1nc2cccc(OCCN3CCN(c4ccccc4)CC3)c2c(=O)n1-c1ccccc1 [Compound 31, (S)-2,4-diamino-6-((1-(4-oxo-3-phenyl-5-(2-(4-phenylpiperazin-1-yl)ethoxy)-3,4-dihydroquinazolin-2-yl)ethyl)amino)pyrimidine-5-carbonitrile] |  | 4 nM | 
23 | Cc1nccn1CCOc1cccc2nc([C@H](C)Nc3nc(N)nc(N)c3C#N)n(-c3ccccc3)c(=O)c12 [Compound 32, (S)-2,4-diamino-6-((1-(5-(2-(2-methyl-1H-imidazol-1-yl)ethoxy)-4-oxo-3-phenyl-3,4-dihydroquinazolin-2-yl)ethyl)amino)pyrimidine-5-carbonitrile] |  | 85 nM | 
24 | C[C@H](Nc1nc(N)nc(N)c1C#N)c1nc2cccc(OCCC3CCCN3C)c2c(=O)n1-c1ccccc1 (stereo partly drawn) [Compound 33, 2,4-diamino-6-(((1S)-1-(5-(2-(1-methylpyrrolidin-2-yl)ethoxy)-4-oxo-3-phenyl-3,4-dihydroquinazolin-2-yl)ethyl)amino)pyrimidine-5-carbonitrile] |  | 24 nM | 
25 | C[C@H](Nc1nc(N)nc(N)c1C#N)c1nc2cccc(OCC3(C)COC3)c2c(=O)n1-c1ccccc1 [Compound 34, (S)-2,4-diamino-6-((1-(5-((3-methyloxetan-3-yl)methoxy)-4-oxo-3-phenyl-3,4-dihydroquinazolin-2-yl)ethyl)amino)pyrimidine-5-carbonitrile] |  | 46 nM | 
26 | C[C@H](Nc1nc(N)nc(N)c1C#N)c1nc2cccc(OCC(=O)N3CCOCC3)c2c(=O)n1-c1ccccc1 [Compound 35, (S)-2,4-diamino-6-((1-(5-(2-morpholino-2-oxoethoxy)-4-oxo-3-phenyl-3,4-dihydroquinazolin-2-yl)ethyl)amino)pyrimidine-5-carbonitrile] |  | 7 nM | 
27 | CC1CCN(C(=O)COc2cccc3nc([C@H](C)Nc4nc(N)nc(N)c4C#N)n(-c4ccccc4)c(=O)c23)CC1 [Compound 36, (S)-2,4-diamino-6-((1-(5-(2-(4-methylpiperidin-1-yl)-2-oxoethoxy)-4-oxo-3-phenyl-3,4-dihydroquinazolin-2-yl)ethyl)amino)pyrimidine-5-carbonitrile] |  | 2 nM | 
28 | C[C@H](Nc1nc(N)nc(N)c1C#N)c1nc2c(F)ccc(CCC(N)=O)c2c(=O)n1-c1ccccc1 [Compound 38, (S)-3-(2-(1-((2,6-diamino-5-cyanopyrimidin-4-yl)amino)ethyl)-8-fluoro-4-oxo-3-phenyl-3,4-dihydroquinazoline-5-yl)propanamide] |  | 0.5 nM | 
29 | C[C@H](Nc1nc(N)nc(N)c1C#N)c1nc2c(F)ccc(CCC(N)=O)c2c(=O)n1-c1cc(F)cc(F)c1 [Compound 39, (S)-3-(2-(1-((2,6-diamino-5-cyanopyrimidin-4-yl)amino)ethyl)-3-(3,5-difluorophenyl)-8-fluoro-4-oxo-3,4-dihydroquinazoline-5-yl)propanamide] |  | 2 nM | 
